In US9512125B2, “Substituted pyrazolo[3.4-D] pyrimidines as anti-inflammatory agents” (THE REGENTS OF THE UNIVERSITY OF CALIFORNIA, priority 2004, dated 2016):
Like-named read-outs stand apart in the source and are kept apart here.

Tests used:
[1] = test system: T cell activation; experiment: T cell activation inhibition in cell-based (BioMAP) assay; parameters: species or system human
Experimental: T-cell activation inhibitors may be especially useful in treating the inflammation underlying arthritis, psoriasis, vasculitis, multiple sclerosis, IBD, asthma, atherosclerosis, or other inflammatory disease.
(§1) Human umbilical vein endothelial cells (HUVEC) were cultured as described in Kunkel et al., 2004, FASEB J 18:1279-1281. Peripheral blood mononuclear cells (PBMC) were prepared from buffy coats (Stanford Blood Bank, Stanford, Calif.) by centrifugation over Hisopaque-1077 (Sigma). Four assay systems, 3C, 4H, SAG, and LPS, were used. For the 3C system, HUVEC were cultured for 24 h in microtiter plates (Falcon; BD Biosciences), in the presence of cytokines IL-1β (1 ng/ml), TNF-α (5 ng/ml), and IFN-γ (20 ng/ml). For the 4H system, HUVEC were cultured in the presence of IL-4 (5 ng/ml) and histamine (10 μM). For the SAG system, HUVEC were cultured with PBMC (7.5×10^4) and SAG (20 ng/ml). For the LPS system, HUVEC were cultured with PBMC (7.5×10^4) and LPS (2 ng/ml). Compounds were added 1 h before stimulation and were present during the entire 24-h stimulation period. Cell-based enzyme-linked immunosorbent assay (ELISAs) were carried out as described. (See Kunkel et al., 2004, FASEB J 18:1279-1281.)

[2] = test system: IFN-gamma signaling; experiment: Gamma interferon signaling inhibition in cell-based (BioMAP) assay; parameters: species or system human; conditions: weakly inhibit T cell and monocyte activation (less than 50%) but inhibit IFN-gamma signaling and collagen production
Experimental: In another embodiment, the compounds of the invention are the subset of compounds of Formula (I) that are gamma interferon signaling inhibitors. […] Gamma interferon signaling inhibitors may be especially useful in treating the inflammation underlying multiple diseases including rheumatoid arthritis, systemic sclerosis, COPD, asthma, atherosclerosis, cirrhosis, pulmonary fibrosis, sarcoidosis, keloids, and renal fibrosis.
as §1

[3] = test system: HUVEC with or without PBMC (3C, 4H, SAG and LPS systems); experiment: BioMAP inflammation model systems (3C, 4H, SAG, LPS), cell-based ELISA profiling; parameters: species or system human; conditions: 4 systems (3C, 4H, SAG, LPS); concentration of 5 micromolar; 24 h stimulation
[4] = test system: monocyte activation; experiment: Monocyte activation inhibition in cell-based (BioMAP) assay; parameters: species or system human; conditions: weakly inhibit T cell activation, strongly inhibit monocyte activation, MCP-1 and IL-8 (at least 50%) in a cell-based assay
Experimental: as §1

[5] = test system: mouse peritoneal inflammation model; experiment: Mouse peritoneal inflammation model (thioglycollate); type: in vivo; conditions: 10 mg/kg intraperitoneal single dose, thioglycollate stimulus, peritoneal lavage at 4 and 24 hours
Experimental: The following example illustrates the ability of a compound useful in the methods of the present invention to reduce neutrophil and monocyte recruitment, as well as to reduce the total number of leukocytes in a mouse peritoneal inflammation model.
A single dose (10 mg/kg in 200 μl) of an anti-inflammatory pyrazolopyrimidine compound of the present invention (compound 30 in Table 1, above) was administered intraperionteally to a group of 6 mice while another group of 6 mice received an intraperitoneal injection of vehicle only. Fifteen minutes later, an inflammatory stimulus (thioglycollate, 200 μl) was administered intraperitoneally to each mouse. Peritoneal lavage was collected at 4 and 24 hours subsequent to stimulus administration.
Inflammatory infiltrate was recovered by injection of 10 ml of Ca++/Mg++ free PBS, massaging, and withdrawal. Total recovered cells were counted on a hemacytometer. The results are presented in FIG. 2 (average+/−SD of 6 mice).
Neutrophils, monocytes, lymphocytes and eosinophils were enumerated by analyzing smears of the peritoneal wash stained with Wright-Geimsa stain. The results are presented in FIG. 3 (average+/−SD of 6 mice).

[6] = strongly inhibit T cell activation: at least one listed gene product inhibited by at least 50% in a cell-based assay

| SMILES | Activity [3] | monocyte activation inhibitor classification [4] | further results |
| --- | --- | --- | --- |
| Cc1ccc(-c2nn(C(C)(C)C)c3ncnc(N)c23)cc1 [Compound 13, PP1, reference compound] |  |  | T cell activation inhibitor classification [1]: T cell activation inhibitor |
| CC(C)(C)n1nc(-c2ccc3c4c(cccc24)CC3)c2c(N)ncnc21 [Compound 11] | active |  | gamma interferon signaling inhibitor classification [2]: interferon gamma signaling inhibitor |
| CC(C)(C)n1nc(-c2cccc(N)c2)c2c(N)ncnc21 [Compound 17] | active |  | T cell activation inhibitor classification [1, 6]: T cell activation inhibitor |
| CC(C)(C)n1nc(Cc2ccccc2Cl)c2c(N)ncnc21 [Compound 30] | active | monocyte activation inhibitor | monocyte recruitment [5]: reduce; neutrophil recruitment [5]: reduce; total number of leukocytes [5]: reduce |
| CC(C)(C)n1nc(-c2ccc3c(c2)OCO3)c2c(N)ncnc21 [Compound 15] | active |  | T cell activation inhibitor classification [1, 6]: T cell activation inhibitor |
| CC(C)(C)Cn1nc(Cc2ccccc2Cl)c2c(N)ncnc21 [Compound 72] | active | monocyte activation inhibitor |  |
| CC(C)n1nc(-c2cccc(O)c2)c2c(N)ncnc21 [Compound 54] | active |  | T cell activation inhibitor classification [1, 6]: T cell activation inhibitor |
| CC(C)(C)n1nc(Cc2ccccc2Br)c2c(N)ncnc21 [Compound 59] | active | monocyte activation inhibitor |  |
| CC(C)(C)n1nc(-c2ccc(F)c3ccccc23)c2c(N)ncnc21 [Compound 12] | active |  | gamma interferon signaling inhibitor classification [2]: interferon gamma signaling inhibitor |
| CC(C)(C)n1nc(Cc2ccccc2C(F)(F)F)c2c(N)ncnc21 [Compound 65] | active | monocyte activation inhibitor |  |
| Nc1ncnc2c1c(Cc1ccccc1Cl)nn2C1CCCC1 [Compound 63] | active | monocyte activation inhibitor |  |
| CC(C)(C)n1nc(-c2ccc3ccccc3c2)c2c(N)ncnc21 [Compound 10] | active |  | T cell activation inhibitor classification [1, 6]: T cell activation inhibitor |
| CNc1ncnc2c1c(Cc1ccccc1Cl)nn2C(C)(C)C [Compound 76] | active | monocyte activation inhibitor |  |
| Cc1ccc(-c2nn(C(C)(C)C)c3ncnc(N)c23)c2ccccc12 [Compound 9] | active |  | gamma interferon signaling inhibitor classification [2]: interferon gamma signaling inhibitor |
| Cc1ccccc1Cc1nn(C(C)(C)C)c2ncnc(N)c12 [Compound 31] | active | monocyte activation inhibitor |  |
| CC(C)(C)n1nc(-c2cccc3ccccc23)c2c(N)ncnc21 [Compound 19] | active |  | gamma interferon signaling inhibitor classification [2]: interferon gamma signaling inhibitor |
| Cc1cc(-c2nn(C(C)(C)C)c3ncnc(N)c23)cc2ccccc12 [Compound 8] | active |  | gamma interferon signaling inhibitor classification [2]: interferon gamma signaling inhibitor |
| CC(C)(C)n1nc(Cc2ccccc2)c2c(N)ncnc21 [Compound 36] | active | monocyte activation inhibitor |  |
| Cn1nc(-c2ccc3ccccc3c2)c2c(N)ncnc21 [Compound 48] | active |  | T cell activation inhibitor classification [1, 6]: T cell activation inhibitor |
| CC(C)(C)n1nc(Cc2ccccc2F)c2c(N)ncnc21 [Compound 64] | active | monocyte activation inhibitor |  |
| CC(C)(C)n1nc(-c2cccc(O)c2)c2c(N)ncnc21 [Compound 41] | active |  | T cell activation inhibitor classification [1, 6]: T cell activation inhibitor |
| CC(C)(C)n1nc(Cc2cccc3ccccc23)c2c(N)ncnc21 [Compound 7] | active |  | gamma interferon signaling inhibitor classification [2]: interferon gamma signaling inhibitor |
| CC(C)n1nc(Cc2ccccc2Cl)c2c(N)ncnc21 [Compound 62] | active | monocyte activation inhibitor |  |
